{"source": "ChEMBL document CHEMBL6121016", "about": "“Design, Synthesis, and Biological Evaluation of 1,3,4-Thiadiazole Derivatives as Novel Potent Peptide Deformylase Inhibitors for Combating Drug-Resistant Gram-Positive and -Negative Bacteria” (J Med Chem, 2025)", "key": {"[1]": {"tested_on": "Klebsiella pneumoniae", "assay": "Antibacterial activity against Klebsiella pneumoniae CICC 21092 after 16 to 18 hrs by broth microdilution method", "type": "functional", "settings": "time 16-18 hrs"}, "[2]": {"tested_on": "Cell membrane", "assay": "Induction of cell membrane disruption in methicillin-resistant Staphylococcus aureus assessed as […] integrity by NucGreen/EthD-III costain fluorescent assay", "type": "subcellular"}, "[3]": {"tested_on": "Staphylococcus aureus", "assay": "Anti-biofilm activity against methicillin-resistant Staphylococcus aureus assessed as growth inhibition at 0.031 microg/ml incubated for 24 hrs by microplate reader analysis relative to control", "type": "functional"}, "[4]": {"molecular_target": "T1, Peptide deformylase (Staphylococcus aureus, UniProt P68826)", "T1 sequence (P68826 whole entry)": "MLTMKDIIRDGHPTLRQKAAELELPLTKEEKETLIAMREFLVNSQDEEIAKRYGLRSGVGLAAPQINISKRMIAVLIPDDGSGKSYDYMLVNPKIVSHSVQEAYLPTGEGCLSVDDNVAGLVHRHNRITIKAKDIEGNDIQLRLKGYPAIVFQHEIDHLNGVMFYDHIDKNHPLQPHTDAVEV", "assay": "Inhibition of Staphylococcus aureus PDF-Ni assessed as enzyme activity incubated for 30 min by fluorescamine method"}, "[5]": {"tested_on": "Escherichia coli", "assay": "Antibacterial activity against Escherichia coli ATCC 10661 after 16 to 18 hrs by broth microdilution method", "type": "functional", "settings": "time 16-18 hrs"}, "[6]": {"tested_on": "Klebsiella pneumoniae", "assay": "Antibacterial activity against Klebsiella pneumoniae CICC 20093 after 16 to 18 hrs by broth microdilution method", "type": "functional", "settings": "time 16-18 hrs"}, "[7]": {"tested_on": "Staphylococcus aureus", "assay": "Antibacterial activity against methicillin-resistant Staphylococcus aureus ATCC 33591 after 16 to 18 hrs by broth microdilution method", "type": "functional", "settings": "time 16-18 hrs"}, "[8]": {"tested_on": "Acinetobacter baumannii", "assay": "Induction of morphological changes in Acinetobacter baumannii Bio 53272 assessed as increased wrinkles at 8 times of MIC incubated for 4 hrs by Field emission scanning electron microscopic analysis", "type": "functional, organism-based"}, "[9]": {"assay": "Acute toxicity in KM mouse infected with drug-resistant Acinetobacter baumannii assessed as survival rate at 40 mg/kg", "type": "organism-based", "settings": "in vivo"}, "[10]": {"tested_on": "Acinetobacter baumannii", "assay": "Antibacterial activity against Acinetobacter baumannii Bio 53272 after 16 to 18 hrs by broth microdilution method", "type": "functional", "settings": "time 16-18 hrs"}, "[11]": {"tested_on": "Acinetobacter baumannii", "assay": "Bactericidal activity against drug-resistant Acinetobacter baumannii assessed as bacteriostatic efficiency measured after 0 to 24 hrs by time killing analysis", "type": "functional, organism-based", "settings": "dose 0.5-2 µg/ml, time 0-24 hrs"}}, "note": "Active and inactive are the calls of the source. No cut-off for these calls is given here.", "data": [{"smiles": "CCCC[C@H](CN(O)C=O)C(=O)N1CCC[C@H]1c1nnc(-c2cccs2)s1", "values": [{"measurement": "MIC", "setting": "[1]", "value": 16, "unit": "µg/mL"}, {"measurement": "Activity", "setting": "[2]", "value": "Active"}, {"measurement": "inhibition at 0.031 µg/mL", "setting": "[3]", "value": 40, "unit": "%"}, {"measurement": "IC50", "setting": "[4]", "value": 2.5, "unit": "nM"}, {"measurement": "MIC", "setting": "[5]", "value": 4, "unit": "µg/mL"}, {"measurement": "MIC", "setting": "[6]", "value": 16, "unit": "µg/mL"}, {"measurement": "MIC", "setting": "[7]", "value": 0.125, "unit": "µg/mL"}, {"measurement": "Activity", "setting": "[8]", "value": "Active"}, {"measurement": "Activity", "setting": "[9]", "value": "Non-toxic"}, {"measurement": "MIC", "setting": "[10]", "value": 0.5, "unit": "µg/mL"}, {"measurement": "Activity", "setting": "[11]", "value": "Dose-dependent-effect"}]}]}
